Experimental data published in paper PMC11983575, “Study on the synthesis and biological activity of kojic acid triazol thiosemicarbazide Schiff base derivatives” (Journal of Enzyme Inhibition and Medicinal Chemistry, 2025).
“Also recorded” adds a separate entry of the source.

Assays:
fresh-cut apples = experiment: Effects on the browning process of fresh-cut apples; set-up: species or system Fuji apples; conditions: 6w 25, 50, 100 μM; storage at 5 °C for five days; kojic acid and vitamin C 50 μM as positive controls
Experimental: Fuji apples were planted in Yantai, China, and were bought from Walmart supermarket in Shaoyang, China. The apples were come from the same batch having similar shapes, maturity, and without injuries, rot, diseases, or pests. Apples were cut into thin pieces with same size by using a sharp knife. Then, the fresh-cut slices were divided randomly into different groups: blank control group was immersed in ethanol for 10 min at room temperature, treatment groups were dipped in the solution of compound 6w under the same conditions, positive groups were dipped in 50 μM kojic acid and 50 μM vitamin C under the same conditions. The test samples were air-dried naturally and immediately were separately packaged with polyethylene clam-packs, and stored at 2–8 °C, and used for the following experimental measurements.
According to the reported protocol, the colour of apple samples was tested by a CR-400 Minolta […] instrument (Konica Minolta, Osaka, Japan). Three data of L*, a*, and b* were recorded for each sample. The L* values indicate lightness, the a* values show reddish-greenish, the b* values represent yellowish-bluish. The colour measurement was carried out in triplicate by random sampling.
Therefore, we further evaluated its anti-browning effect on apple, in which kojic acid and vitamin C were used as positive control. […]

tyrosinase = biological target: T1, tyrosinase (Agaricus bisporus, UniProt C7FF04); experiment: Fluorescence quenching of tyrosinase (Stern-Volmer); format: binding; conditions: for KSV / Kq: Stern-Volmer
T1 construct: purchased Sigma-Aldrich Chemical Co. (Shanghai, China)
Experimental: To investigate fluorescence quenching role of inhibitor to the tyrosinase, fluorescence experiments were carried according to the reported method. To determine the linear concentration range of the fluorescence, compound 6w was first dissolved in DMSO. The concentration of the solution was 10 mM, and then was diluted with sodium phosphate buffer. The ultimate concentration was changed from 0 to 50 μM. A series of 3 ml solutions containing 1.5 ml of tyrosinase solution were added to a centrifuge tube and then accurately mixed with different concentrations of 6w solution range from 0 to 50 μM. Cary Eclipse G9800A fluorescence spectrophotometer (Agilent Technologies Co., Santa Clara, CA) was employed to detect the fluorescence intensity. The excitation wavelength was set to 280 nm, the bath was set as three temperatures (292 K, 298 K, and 304 K) with a scanning wavelength change from 300 to 500 nm. The excitation and emission bandwidths were 5 nm. The final tyrosinase concentration was 0.05 mg/ml.
Fluorescence quenching means that some small molecule compounds bind to protein that can affect the fluorescence intensity of the fluorophore. Therefore, in order to obtain information about conformational changes of enzymes, fluorescence spectroscopy has become a very important research tool. With increasing concentrations of compound 6w, the dramatically decreasing fluorescence intensity of tyrosinase could be found. […] At the same time, there was no significant red shift or blue shift in the fluorescence emission peak of tyrosinase after the addition of compound 6w. […] The quenching of the intrinsic fluorescence provided a direct and clear evidence that the inhibitor 6w was capable of binding to tyrosinase, and the binding of 6w to tyrosinase led to change in the microenvironment around the fluorophore, and the detailed KSV values are summarised Table 2.
Figure 3. (A) Changes in the tyrosinase fluorescence at different concentrations of compound 6w (λex = 280 nm, T = 298 K). The final enzyme concentration was 0.05 mg/ml, and c (compound 6w) = 0 μM, 5 μM, 15 μM, 20 μM, 25 μM, 30 μM, 35 μM, 40 μM, 45 μM, and 50 μM for the curves from top to bottom, respectively. (B) The Stern–Volmer figure of compound 6w and tyrosinase at 292, 298, and 304 K.

mushroom tyrosinase = mushroom tyrosinase (Agaricus bisporus, UniProt C7FF04); experiment: In vitro mushroom tyrosinase inhibition (L-DOPA substrate); format: biochemical; conditions: 475 nm, read-out: IC50 (μM) ± SD, inhibitory tyrosinase activity
Experimental: The mushroom tyrosinase inhibitory activity was determined according to previous described method. Briefly, 168 μl of phosphate buffer (0.1 M, pH 6.8), 10 μl of mushroom tyrosinase (0.5 mg/ml, Sigma Chemical, St. Louis, MO) and 2 μl of the inhibitor solution were placed in the wells of a 96-well micro plate. After pre-incubation for 20 min at 37 °C, 20 μl of 2.0 mg/ml L-DOPA (3,4-dihydroxyphenylalanine, Sigma Chemical, St. Louis, MO) was added and the enzyme activity was measured at 475 nm every 60 s for 180 s in a Microplate Reader (Bio-Rad Laboratories, Inc., Hercules, CA). Kojic acid and phosphate buffer were respectively used as positive and negative control. The extent of inhibition by the test compounds was expressed as the percentage of concentration necessary to achieve 50% inhibition (IC50). The percentage of inhibition was calculated as follows: inhibitory rate (%) = [Ac − At)/Ac] × 100. Ac is the absorbance of the negative control and At is the absorbance of the test compound. Each concentration was analysed in three independent experiments run in triplicate. The IC50 values were determined by the data analysis software GraphPad Prism 8 (La Jolla, CA).
The tyrosinase inhibition measurements of compounds 6a–6x were carried out using L-DOPA as substrate. Kojic acid was selected as a positive control compound. […]. […] Moreover, inhibitory activity of compound with hydroxyl group at papa position is better than the inhibitory activity of compound with hydroxyl group at meta position, and inhibitory activity of compound with hydroxyl group at meta position is better than the inhibitory activity of compound with hydroxyl group at ortho position. […]. […] In addition, with the increase of atomic radius, the inhibitory activity gradually decreases. (3) The inhibitory activity of alkoxy substituted compound is better than that of alkyl substituted compound. (4) Comparing the tyrosinase inhibitory activity of compounds with halogen atom (6b–6d, 6q–6s) and compounds with methyl or methoxy (6e–6f, 6t–6u), when the hydrogen (R^2) was replaced by the methyl (R^2), the inhibitory activity was decreased.

T1 sequence (C7FF04 1-392 limits assumed): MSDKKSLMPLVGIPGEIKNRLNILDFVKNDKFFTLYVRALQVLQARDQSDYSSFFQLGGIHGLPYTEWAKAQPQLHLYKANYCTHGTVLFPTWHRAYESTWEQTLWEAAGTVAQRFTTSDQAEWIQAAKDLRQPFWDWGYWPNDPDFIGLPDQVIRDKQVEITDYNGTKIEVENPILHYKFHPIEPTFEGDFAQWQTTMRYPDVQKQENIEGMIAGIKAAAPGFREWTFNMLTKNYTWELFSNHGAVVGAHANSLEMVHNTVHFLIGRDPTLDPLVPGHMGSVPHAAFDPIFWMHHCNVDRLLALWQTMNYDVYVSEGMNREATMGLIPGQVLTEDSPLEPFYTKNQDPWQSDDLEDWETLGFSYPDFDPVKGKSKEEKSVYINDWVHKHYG
Sequence of mushroom tyrosinase (C7FF04 1-392): as the sequence (C7FF04 1-392 limits assumed) above

2-(1-(4-((1-((5-Hydroxy-4-oxo-4H-pyran-2-yl)methyl)-1H-1,2,3-triazol-5-yl)methoxy)phenyl)ethylidene)hydrazinecarbothioamide [Compound 6w]
anti-browning effect on fresh-cut apple (L* values, colour) (fresh-cut apples): potent anti-browning agent; also recorded: better than that of kojic acid and ascorbic acid; also recorded: some anti-browning effect
fluorescence quenching mechanism (tyrosinase; 292, 298 and 304 K): dynamic quenching
KSV (tyrosinase; T 292 K): 0.03005 L/µmol
Kq (tyrosinase; T 292 K): 3.0052e+13 M⁻¹ s⁻¹
KSV (tyrosinase; T 298 K): 0.04605 L/µmol
Kq (tyrosinase; T 298 K): 4.6048e+13 M⁻¹ s⁻¹
KSV (tyrosinase; T 304 K): 0.06529 L/µmol
Kq (tyrosinase; T 304 K): 6.5292e+13 M⁻¹ s⁻¹
IC50 (mushroom tyrosinase): 0.94 ± 0.035 µM
